# Literature values in PubChem BioAssay AID1259409 (Chemical Carcinogenesis Research Information System (CCRIS), 2018).
# System: rodent chemically induced tumor inhibition, incidence and multiplicity
# Assay: CCRIS tumor inhibitor studies
# Conditions: Dose [Inhibitor]: 0, Route [Inhibitor]: ORAL, Species: RAT
smiles,measurement,setting,value
COc1ccc([C@@H]2CC(=O)c3c(O)cc(O[C@@H]4O[C@H](CO[C@@H]5O[C@@H](C)[C@H](O)[C@@H](O)[C@H]5O)[C@@H](O)[C@H](O)[C@H]4O)cc3O2)cc1O,"tumour outcome (control, treated, inhibition, significance)","Carcinogen: 4-NITROQUINOLINE-1-OXIDE, 56-57-5, 500 PPM IN DIET FOR 10 WK BEGINNING 1 WK PRIOR TO CARCINOGEN TREATMENT (STUDY DURATION: 32 WK), Strain/Sex: F344/MALE, Target Tissue: Type of Lesion: TONGUE: CARCINOMA, Dose [Carcinogen]: 20 PPM IN DRINKING WATER FOR 8 WK, Promoter: NONE USED","13/24 (54%), 4/18 (22%), 59%, p<0.05"
same,"tumour outcome (control, treated, inhibition, significance)","Carcinogen: 4-NITROQUINOLINE-1-OXIDE, 56-57-5, 500 PPM IN DIET FOR 10 WK BEGINNING 1 WK PRIOR TO CARCINOGEN TREATMENT (STUDY DURATION: 32 WK), Strain/Sex: F344/MALE, Target Tissue: Type of Lesion: TONGUE: PAPILLOMA, Dose [Carcinogen]: 20 PPM IN DRINKING WATER FOR 8 WK, Promoter: NONE USED","4/24 (17%), 2/18 (11%), 35%, not significant"
same,"tumour outcome (control, treated, inhibition, significance)","Carcinogen: 4-NITROQUINOLINE-1-OXIDE, 56-57-5, 500 PPM IN DIET FOR 22 WK BEGINNING 1 WK POST CARCINOGEN TREATMENT (STUDY DURATION: 32 WK), Strain/Sex: F344/MALE, Target Tissue: Type of Lesion: TONGUE: CARCINOMA, Dose [Carcinogen]: 20 PPM IN DRINKING WATER FOR 8 WK, Promoter: NONE USED","13/24 (54%), 8/19 (42%), 22%, not significant"
same,"tumour outcome (control, treated, inhibition, significance)","Carcinogen: 4-NITROQUINOLINE-1-OXIDE, 56-57-5, 500 PPM IN DIET FOR 22 WK BEGINNING 1 WK POST CARCINOGEN TREATMENT (STUDY DURATION: 32 WK), Strain/Sex: F344/MALE, Target Tissue: Type of Lesion: TONGUE: PAPILLOMA, Dose [Carcinogen]: 20 PPM IN DRINKING WATER FOR 8 WK, Promoter: NONE USED","4/24 (17%), 1/19 (5%), 71%, not significant"
same,"tumour outcome (control, treated, inhibition, significance)","Carcinogen: 4-NITROQUINOLINE-1-OXIDE, 56-57-5, 1000 PPM IN DIET FOR 10 WK BEGINNING 1 WK PRIOR TO CARCINOGEN TREATMENT (STUDY DURATION: 32 WK), Strain/Sex: F344/MALE, Target Tissue: Type of Lesion: TONGUE: PAPILLOMA, Dose [Carcinogen]: 20 PPM IN DRINKING WATER FOR 8 WK, Promoter: NONE USED","8/17 (47%), 1/19 (5%), 89%, p<0.01"
same,"tumour outcome (control, treated, inhibition, significance)","Carcinogen: 4-NITROQUINOLINE-1-OXIDE, 56-57-5, 1000 PPM IN DIET FOR 10 WK BEGINNING 1 WK PRIOR TO CARCINOGEN TREATMENT (STUDY DURATION: 32 WK), Strain/Sex: R344/MALE, Target Tissue: Type of Lesion: TONGUE: SQUAMOUS CELL CARCINOMA, Dose [Carcinogen]: 20 PPM IN DRINKING WATER FOR 8 WK, Promoter: NONE USED","11/17 (65%), 3/19 (16%), 75%, p<0.005"
same,"tumour outcome (control, treated, inhibition, significance)","Carcinogen: 4-NITROQUINOLINE-1-OXIDE, 56-57-5, 1000 PPM IN DIET FOR 22 WK BEGINNING 1 WK POST CARCINOGEN TREATMENT (STUDY DURATION: 32 WK), Strain/Sex: F344/MALE, Target Tissue: Type of Lesion: TONGUE: PAPILLOMA, Dose [Carcinogen]: 20 PPM IN DRINKING WATER FOR 8 WK, Promoter: NONE USED","8/17 (47%), 2/20 (10%), 79%, p<0.05"
same,"tumour outcome (control, treated, inhibition, significance)","Carcinogen: 4-NITROQUINOLINE-1-OXIDE, 56-57-5, 1000 PPM IN DIET FOR 22 WK BEGINNING 1 WK POST CARCINOGEN TREATMENT (STUDY DURATION: 32 WK), Strain/Sex: F344/MALE, Target Tissue: Type of Lesion: TONGUE: SQUAMOUS CELL CARCINOMA, Dose [Carcinogen]: 20 PPM IN DRINKING WATER FOR 8 WK, Promoter: NONE USED","11/17 (65%), 5/20 (25%), 62%, p<0.05"
same,"tumour outcome (control, treated, inhibition, significance)","Carcinogen: AZOXYMETHANE, 25843-45-2, 0.1% IN DIET FOR 4 WK BEGINNING 1 WK PRIOR TO CARCINOGEN TREATMENT (STUDY DURATION: 32 WK), Strain/Sex: F344/MALE, Target Tissue: Type of Lesion: COLON: ADENOCARCINOMA, Dose [Carcinogen]: 15 MG/KG BW 1/WK FOR 3 WK, Promoter: NONE","70%, 5%, 93%, p<0.001"
same,"tumour outcome (control, treated, inhibition, significance)","Carcinogen: AZOXYMETHANE, 25843-45-2, 0.1% IN DIET FOR 28 WK BEGINNING 1 WK POST LAST CARCINOGEN DOSE (STUDY DURATION: 32 WK), Strain/Sex: F344/MALE, Target Tissue: Type of Lesion: COLON: ADENOCARCINOMA, Dose [Carcinogen]: 15 MG/KG BW 1/WK FOR 3 WK, Promoter: NONE","70%, 17%, 76%, p<0.005"
same,"tumour outcome (control, treated, inhibition, significance)","Carcinogen: AZOXYMETHANE, 25843-45-2, 1000 PPM IN DIET FOR 4 WK BEGINNING 1 WK PRIOR TO CARCINOGEN TREATMENT (STUDY DURATION: 32 WK), Strain/Sex: F344/MALE, Target Tissue: Type of Lesion: LARGE INTESTINE: TUMOR, Dose [Carcinogen]: 15 MG/KG BW 1/WK FOR 3 WK, Promoter: NONE USED","12/17 (71%), 3/19 (16%), 77%, p<0.001"
same,"tumour outcome (control, treated, inhibition, significance)","Carcinogen: AZOXYMETHANE, 25843-45-2, 1000 PPM IN DIET FOR 4 WK BEGINNING 1 WK PRIOR TO CARCINOGEN TREATMENT (STUDY DURATION: 32 WK), Strain/Sex: F344/MALE, Target Tissue: Type of Lesion: SMALL INTESTINE: TUMOR, Dose [Carcinogen]: 15 MG/KG BW 1/WK FOR 3 WK, Promoter: NONE USED","5/17 (29%), 1/19 (5%), 83%, not significant"
same,"tumour outcome (control, treated, inhibition, significance)","Carcinogen: AZOXYMETHANE, 25843-45-2, 1000 PPM IN DIET FOR 28 WK BEGINNING 1 WK POST CARCINOGEN TREATMENT (STUDY DURATION: 32 WK), Strain/Sex: F344/MALE, Target Tissue: Type of Lesion: LARGE INTESTINE: TUMOR, Dose [Carcinogen]: 15 MG/KG BW 1/WK FOR 3 WK, Promoter: NONE USED","12/17 (71%), 3/20 (15%), 79%, p<0.001"
